From patent publication US10966426B2, “Herbicidal compositions comprising phenylpyrimidines” (BASF SE, priority 2016, dated 2021)
Where “and” joins values, the source holds several entries; their conditions need not be identical. Equal values may be shown once.

How the values were obtained:
Type in all cases: in vivo
[1] = test system: Matricaria chamomilla; assay: greenhouse post-emergence treatment, MATCH; settings: MATCH
How it was run: (§1)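 Foliar application to greenhouse-grown plants 3–15 cm tall in humus-containing loamy sand; response assessed on a 0–100 scale after 2–4 weeks, with Colby's E=X+Y−(X·Y/100) as the additive expectation.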

[2] = test system: Lolium multiflorum; assay: greenhouse post-emergence treatment, LOLMU; settings: LOLMU
How it was run: (§2)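 Pot trial in loamy sand with about 3.0% humus; plants sown in place or transplanted as seedlings a few days before treatment, kept at 10-25° C or 20-35° C by species, water as solvent. Damage scored 0 (none) to 100 (full destruction) over 2 to 4 weeks; combination expectation by Colby, E=X+Y−(X·Y/100).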

[3] = test system: Polygonum convolvulus; assay: greenhouse post-emergence treatment, POLCO; settings: POLCO, solo Ex. 5 62.5 gai/ha
How it was run: as §1

[4] = test system: Setaria viridis; assay: greenhouse post-emergence treatment, SETVI; settings: SETVI
How it was run: as §2

[5] = test system: Bromus sterilis; assay: greenhouse post-emergence treatment, BROST
How it was run: as §2

[6] = test system: Brachiaria decumbens; assay: greenhouse post-emergence treatment, BRADC; settings: BRADC
How it was run: (§3)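 Seeds sown per species in pots of loamy sand; seedlings either grown in place or transplanted days before treatment. Post-emergence spray of water-based liquor at 3–15 cm height. Injury rated 0–100 over 2 to 4 weeks.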

[7] = test system: Ambrosia elatior; assay: greenhouse post-emergence treatment, AMBEL; settings: 20 DAT, AMBEL
How it was run: as §3

[8] = Ex. 5 solo, 62.5 gai/ha, 20 DAT
[9] = Table X8, 20 DAT, solo Ex. 5 125 gai/ha

SMILES: O=C(O)c1nc(C2CC2)ncc1-c1ccccc1Cl [Ex. 5]
- % activity, solo application ([1]; 250 gai/ha, 20 DAT, Table X5): 10%
- % activity [1, 8]: 40%
- % activity ([1]; Ex. 5 solo, 62.5 gai/ha, 21 DAT): 30%
- % activity ([1]; Ex. 5 solo, 125 gai/ha, 21 DAT): 30%
- % activity ([1]; Ex. 5 solo, 250 gai/ha, 21 DAT): 60%
- % activity ([1]; 20 DAT, solo Ex. 5 125 gai/ha): 40%
- % activity ([1]; 20 DAT, solo Ex. 5 250 gai/ha): 30%
- % activity ([1]; 20 DAT, solo Ex. 5 250 gai/ha (Table X66)): 30%
- % activity ([1]; 21 DAT, solo Ex. 5 125 gai/ha): 30%
- % activity ([1]; solo Ex. 5 62.5 gai/ha, 20 DAT): 10% and 0%
- % activity ([1]; solo Ex. 5 250 gai/ha, 21 DAT): 30%
- % activity ([1]; solo, 62.5 gai/ha, 20 DAT): 20%
- % activity ([1]; solo, 125 gai/ha, 20 DAT): 40% and 20%
- % activity ([1]; solo, 250 gai/ha, 20 DAT): 40% and 45%
- % activity, solo application ([2]; 125 gai/ha, 20 DAT, Table X4): 80%
- % activity, solo application ([2]; 125 gai/ha, 20 DAT, Table X5): 80%
- % activity, solo application ([2]; 250 gai/ha, 20 DAT, Table X4): 80%
- % activity ([2]; 21 DAT, solo Ex. 5 125 gai/ha): 85%
- % activity ([2]; 21 DAT, solo Ex. 5 250 gai/ha): 85%
- % activity ([2]; solo Ex. 5 15 gai/ha, 20 DAT, 2nd series of rows): 85%
- % activity ([2]; solo Ex. 5 62.5 gai/ha, 20 DAT): 80%
- % activity ([2]; solo Ex. 5 62.5 gai/ha, 20 DAT, 2nd series of rows): 80%
- % activity ([2]; solo Ex. 5 125 gai/ha, 20 DAT): 80% and 83%
- % activity ([2]; solo Ex. 5 250 gai/ha, 20 DAT): 85%
- % activity ([2]; solo Ex. 5 250 gai/ha, 20 DAT, 2nd series of rows): 85%
- % activity ([2]; solo Ex. 5 250 gai/ha, 21 DAT): 80%
- % activity ([2]; solo Ex. 5 500 gai/ha, 20 DAT): 85%
- % activity ([2]; solo Ex. 5 500 gai/ha, 20 DAT, 2nd series of rows): 85%
- % activity [2, 9]: 85%
- % activity ([2]; Table X12, 20 DAT, solo Ex. 5 125 gai/ha): 85%
- % activity ([2]; solo, 62.5 gai/ha, 20 DAT): 75%
- % activity ([2]; solo, 125 gai/ha, 20 DAT): 80% and 50%
- % activity ([2]; solo, 250 gai/ha, 20 DAT): 80%
- % activity ([3]; 20 DAT): 60%
- % activity ([3]; 21 DAT): 90%
- % activity, solo application ([4]; 62.5 gai/ha, 20 DAT, Table X3): 35%
- % activity, solo application ([4]; 250 gai/ha, 20 DAT, Table X3): 60%
- % activity, solo application ([4]; 250 gai/ha, 20 DAT, Table X4): 50%
- % activity, solo application ([4]; 250 gai/ha, 20 DAT, Table X7): 60%
- % activity [4, 8]: 55%
- % activity ([4]; 20 DAT, solo Ex. 5 62.5 gai/ha): 30%
- % activity ([4]; 20 DAT, solo Ex. 5 125 gai/ha): 40%
- % activity ([4]; 21 DAT, solo Ex. 5 125 gai/ha): 70%
- % activity ([4]; solo Ex. 5 62.5 gai/ha, 20 DAT): 35% and 30% and 48%
- % activity ([4]; solo Ex. 5 62.5 gai/ha, 21 DAT): 35%
- % activity ([4]; solo Ex. 5 250 gai/ha, 20 DAT): 65%
- % activity [4, 9]: 30%
- % activity ([4]; Table X8, 20 DAT, solo Ex. 5 250 gai/ha): 30%
- % activity ([4]; solo, 62.5 gai/ha, 20 DAT): 20% and 35%
- % activity ([4]; solo, 125 gai/ha, 20 DAT): 40%
- % activity ([4]; solo, 250 gai/ha, 20 DAT): 50%
- % activity, solo application ([5]; 250 gai/ha, 20 DAT, BROST, Table X3): 80%
- % activity ([5]; BROST, 20 DAT, solo Ex. 5 62.5 gai/ha): 35%
- % activity ([5]; BROST, 20 DAT, solo Ex. 5 250 gai/ha): 80%
- % activity ([5]; BROST, solo Ex. 5 62.5 gai/ha, 20 DAT): 30% and 53%
- % activity ([5]; BROST, solo Ex. 5 125 gai/ha, 20 DAT): 65% and 73%
- % activity ([5]; BROST, solo Ex. 5 250 gai/ha, 20 DAT): 70% and 85%
- % activity ([5]; BROST, solo Ex. 5 500 gai/ha, 20 DAT): 90%
- % activity ([5]; solo, BROST, 125 gai/ha, 20 DAT): 65%
- % activity ([5]; solo, BROST, 250 gai/ha, 20 DAT): 70% and 80%
- % activity, solo application ([6]; 125 gai/ha, 20 DAT, Table X5): 50%
- % activity, solo application ([6]; 125 gai/ha, 20 DAT, Table X7): 65%
- % activity, solo application ([6]; 250 gai/ha, 20 DAT, Table X3): 60%
- % activity ([6]; 20 DAT, solo Ex. 5 62.5 gai/ha): 35%
- % activity ([6]; 20 DAT, solo Ex. 5 125 gai/ha): 40%
- % activity ([6]; 20 DAT, solo Ex. 5 125 gai/ha (Table X66)): 40%
- % activity ([6]; 20 DAT, solo Ex. 5 250 gai/ha): 60%
- % activity ([6]; 21 DAT, solo Ex. 5 125 gai/ha): 60%
- % activity ([6]; 21 DAT, solo Ex. 5 250 gai/ha): 70%
- % activity ([6]; solo Ex. 5 62.5 gai/ha, 20 DAT): 30% and 45%
- % activity ([6]; solo Ex. 5 125 gai/ha, 20 DAT): 50%
- % activity ([6]; solo Ex. 5 250 gai/ha, 20 DAT): 60%
- % activity ([6]; solo, 62.5 gai/ha, 20 DAT): 45%
- % activity ([6]; solo, 250 gai/ha, 20 DAT): 60%
- % activity, solo application ([7]; 125 gai/ha, Table X5): 80%
- % activity ([7]; solo Ex. 5 62.5 gai/ha): 80%
- % activity ([7]; solo Ex. 5 125 gai/ha): 80%
- % activity ([7]; solo, 62.5 gai/ha): 85%
